Results from the supplement of paper PMC5908809.

Columns and labels:
NK-92 (IL-2 2.5 ng/mL) [1] = assay: drug sensitivity score (DSS) (DSS units); higher = more sensitive; extreme values may be limits of the assay; details: 72 h
[2] = test system: normal primary NK cells, pool 1 (3 donors) (IL-2 2.5 ng/mL); assay: as above; details: 72 h
[3] = test system: normal primary NK cells, pool 3 (3 donors) (IL-2 2.5 ng/mL); assay: as above; details: 72 h
IMC-1 (IL-2 20 ng/mL) [4] = assay: as above; details: 72 h
[5] = test system: normal primary NK cells, pool 2 (3 donors) (IL-2 2.5 ng/mL); assay: as above; details: 72 h
NKL (IL-2 2.5 ng/mL) [6] = assay: as above; details: 72 h
KAI3 (IL-2 2.5 ng/mL) [7] = assay: as above; details: 72 h
[8] = test system: normal primary NK cells, pool 1 (3 donors), resting (IL-2 0 ng/mL); assay: as above; details: 72 h
SNK-6 (IL-2 2.5 ng/mL) [9] = assay: as above; details: 72 h
DERL-7 (IL-2 2.5 ng/mL) [10] = assay: as above; details: 72 h
YT (IL-2 2.5 ng/mL) [11] = assay: as above; details: 72 h
NK-YS (IL-2 2.5 ng/mL) [12] = assay: as above; details: 72 h
KHYG-1 (IL-2 2.5 ng/mL) [13] = assay: as above; details: 72 h
NK-92 (IL-2 2.5 ng/mL) [14] = assay: percent inhibition of viability; higher = more inhibition; details: 72 h
[15] = test system: normal primary NK cells, pool 1 (3 donors) (IL-2 2.5 ng/mL); assay: as above; details: 72 h
[16] = test system: normal primary NK cells, pool 3 (3 donors) (IL-2 2.5 ng/mL); assay: as above; details: 72 h
IMC-1 (IL-2 20 ng/mL) [17] = assay: as above; details: 72 h
[18] = test system: normal primary NK cells, pool 2 (3 donors) (IL-2 2.5 ng/mL); assay: as above; details: 72 h
NKL (IL-2 2.5 ng/mL) [19] = assay: as above; details: 72 h
KAI3 (IL-2 2.5 ng/mL) [20] = assay: as above; details: 72 h
[21] = test system: normal primary NK cells, pool 1 (3 donors), resting (IL-2 0 ng/mL); assay: as above; details: 72 h
SNK-6 (IL-2 2.5 ng/mL) [22] = assay: as above; details: 72 h
DERL-7 (IL-2 2.5 ng/mL) [23] = assay: as above; details: 72 h
YT (IL-2 2.5 ng/mL) [24] = assay: as above; details: 72 h
NK-YS (IL-2 2.5 ng/mL) [25] = assay: as above; details: 72 h
KHYG-1 (IL-2 2.5 ng/mL) [26] = assay: as above; details: 72 h
[27] = test system: normal NK cells expanded with K562-aAPC; assay: as above; details: 72 h, IL-2 2.5 ng/mL
Experimental: (§1)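 Drug sensitivity and resistance testing on K562-aAPC-expanded normal NK cells: 5 concentrations (10-fold steps over a 10,000-fold range), 72 h at 37 °C, viability by CellTiter-Glo normalised to DMSO and benzethonium chloride controls; DSS from the fitted curve.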

[28] = test system: normal NK cells expanded with K562-aAPC; assay: drug sensitivity score (DSS) (DSS units); higher = more sensitive; extreme values may be limits of the assay; details: 72 h; IL-2 2.5 ng/mL
Experimental: as §1

COc1cc(CCc2cc(NC(=O)c3ccc(N4CC(C)NC(C)C4)cc3)n[nH]2)cc(OC)c1 (centres undefined) [AZD4547] (max concentration tested 1000 nM)
Details | drug sensitivity score
DERL-7 (IL-2 2.5 ng/mL) [10] | 0
IMC-1 (IL-2 20 ng/mL) [4] | 0.05
KAI3 (IL-2 2.5 ng/mL) [7] | 2.12
KHYG-1 (IL-2 2.5 ng/mL) [13] | 0
NK-92 (IL-2 2.5 ng/mL) [1] | 0
NK-YS (IL-2 2.5 ng/mL) [12] | 0
NKL (IL-2 2.5 ng/mL) [6] | 4.12
SNK-6 (IL-2 2.5 ng/mL) [9] | 1.27
YT (IL-2 2.5 ng/mL) [11] | 1.18
[2] | 3.07
[3] | 0
[5] | 0
[8] | 0.81
[28] | 0.21

percent inhibition of viability [%]
Details | 0.1 nM | 1 nM | 10 nM | 100 nM | 1000 nM
DERL-7 (IL-2 2.5 ng/mL) [23] | 0.65 | 12 | 4.33 | 3.09 | 5.77
IMC-1 (IL-2 20 ng/mL) [17] | -10.2 | -0.55 | 2.58 | 3.59 | 11.7
KAI3 (IL-2 2.5 ng/mL) [20] | 0.83 | 0.57 | 5.8 | 15.9 | 18.7
KHYG-1 (IL-2 2.5 ng/mL) [26] | -1.35 | -9.6 | -4.7 | -0.32 | 6.6
NK-92 (IL-2 2.5 ng/mL) [14] | -8.61 | -19.7 | -10.4 | 1.68 | 9.5
NK-YS (IL-2 2.5 ng/mL) [25] | -1.26 | -3.32 | -4.3 | -2.46 | 7.41
NKL (IL-2 2.5 ng/mL) [19] | -6.59 | -3.17 | 6.86 | 22.1 | 18.6
SNK-6 (IL-2 2.5 ng/mL) [22] | -8.3 | -5.78 | 6.93 | -1.06 | 30.7
YT (IL-2 2.5 ng/mL) [24] | -1.63 | -5.24 | 0.65 | 14.1 | 7.45
[15] | 0.51 | 14 | 13.1 | 8.85 | 9.5
[16] | -2.75 | 5.35 | 5.93 | -3.36 | 6.54
[18] | -16.2 | 4.82 | 5.78 | 1.94 | 4.66
[21] | -1.26 | 20.1 | 12.4 | 9.93 | 10.7
[27] | -0.43 | -4.83 | -0.59 | 0.99 | 13.7
